Experimental data reported in patent US20090123907A1 (priority 2004, published 2009).

Assays:
plasma proteins [1] = assay: Protein resistance to vortexing; details: for Alk. Phos / LDH / SGOT / SGPT / fIX / fV / fVIII / fibrinogen: plasma, Na citrate 0.4%, lysine citrate 2.0%; for Alkaline phosphatase, % of its initial value / LDH, % of initial value / SGOT, % of initial value / SGPT, % of initial value / factor IX, % of initial value / factor V, % of initial value / factor VIII, % of initial value / fibrinogen, % of initial value: sodium citrate 0.4%, lysine citrate 2%
Protocol: As the basic anticoagulant experiments were carried out, additional advantages to the new anticoagulation system became apparent. The inventor has long believed that the effects of citrate on proteins, and in particular plasma proteins, goes beyond mere chelation of calcium. As mentioned above, citrate complexes with or otherwise potentiates the precipitation of plasma proteins. […] Soluble protein can be denatured by vigorous mixing and the resulting exposure to the air-water interfaces present in foam. […]. Two ten ml tubes of each plasma were prepared and held at room temperature for thirty minutes. A “pretreatment” sample (Pre) was removed from each tube and set aside. Then the tubes were subjected to vigorous mixing using a vortex (rotary) mixer for 30 min.
[…]. […] […].

[2] = Level of calcium measured in blood with citrate anticoagulants
Source text: Lysine citrate is compared to traditional sodium citrate. The various citrate levels are expressed as a weight percentage of citrate so that equivalent levels have the same amount of citrate. The same blood was used throughout so that all of the samples started with the same calcium concentration. Since citrate is an effective chelator of calcium one expects the measured level of calcium to decrease with increasing levels of citrate as more and more of the calcium is “tied up” by the citrate. There is an equilibrium between free measurable calcium and calcium associated with citrate molecules. As the concentration of citrate is increased, calcium levels are lowered as there is a higher and higher probability that a given calcium ion will be interacting with a citrate molecule. […] There are at least two different ways of interpreting phenomenon. It is possible that when lysine molecules interact with citrate molecules, the interaction somehow prevents the chelation of calcium. This would explain the higher calcium measurements because there would effectively be a lower level of citrate present. […] That too would explain the higher measured calcium level but does little to solve the remainder of the conundrum. […] Thus, another advantage of lysine citrate is enhanced patient safety and a simpler plasmapheresis set up since it will not longer be necessary to administer protective doses of calcium.

clot formation = assay: Clotting times (PT, PTT) of anticoagulated whole blood; assay type: biochemical
Protocol: In this experiment whole blood (an aliquot of which clotted within 10 minutes without anticoagulant) was modified by adding a number of different anticoagulant compositions. Sodium citrate was used as an anticoagulant at 0.65%, 0.75% and 0.9% by weight. These are all higher citrate levels than the usual 0.4% by weight. Amino acid citrates (lysine or arginine) were used at 0.65%, 0.75% and 0.9% by weight based on the weight of the citric acid. The amino acid counterion was used in sufficient quantity to adjust the pH as explained above.

plasma proteins [3] = assay: Protein resistance to glass beads; details: Na citrate 0.4%, lysine citrate 2.0%
Source text: The above experiment was repeated using glass beads as a denaturing agent. Generally, contact of blood plasma with glass surfaces results in activation or denaturation. […].

plasma proteins [4] = assay: Protein resistance to 56° C. treatment; details: Na citrate 0.4%, lysine citrate 2.0%
Source text: […]. In many cases heat treatments have been used to reduce or eliminated infectious agents from blood products. A problem with such an approach has been heat induced changes in the antigenicity of certain blood components. […]. A continuation of this experiment was set up to check also long term room temperature stability. It is generally believed that resistance to heat is an indicator of room temperature stability. That is the justification for estimating long term stability of products by using “accelerated” stability tests based on storage at an elevated temperature. In the presented experiment it is important to note that different plasma sample were used for the two different anticoagulants because a single sample was not large enough to provide sufficient volume for all of the tests over the life of the extended experiment.

[5] = Post 30 min rocking with glass beads
[6] = Post 56° C. for five minutes, plasma
[7] = after vortexing, 2% sodium citrate (similar experiment, data not shown)

NCCCC[C@H](N)C(=O)O.O=C(O)CC(O)(CC(=O)O)C(=O)O [Lysine Citrate, lysine citrate]
Alk. Phos (plasma proteins [1]; Post 30 min vortexing): 22 IU/.L | LDH (plasma proteins [1]; Post 30 min vortexing): 80 IU/L | SGOT (plasma proteins [1]; Post 30 min vortexing): 11 IU/L | SGPT (plasma proteins [1]; Post 30 min vortexing): 24 IU/L | fIX (plasma proteins [1]; Post 30 min vortexing): 76% | fV (plasma proteins [1]; Post 30 min vortexing): 55% | fVIII (plasma proteins [1]; Post 30 min vortexing): 57% | fibrinogen (plasma proteins [1]; Post 30 min vortexing): 198 mg/dL | Alk. Phos (plasma proteins [1]; Pre vortexing): 25 IU/.L | LDH (plasma proteins [1]; Pre vortexing): 99 IU/L | SGOT (plasma proteins [1]; Pre vortexing): 12 IU/L | SGPT (plasma proteins [1]; Pre vortexing): 26 IU/L | fIX (plasma proteins [1]; Pre vortexing): 98% | fV (plasma proteins [1]; Pre vortexing): 95% | fVIII (plasma proteins [1]; Pre vortexing): 97% | fibrinogen (plasma proteins [1]; Pre vortexing): 247 mg/dL | Alkaline phosphatase, % of its initial value (plasma proteins [1]; after vortexing): 88% | LDH, % of initial value (plasma proteins [1]; after vortexing): 80% | SGOT, % of initial value (plasma proteins [1]; after vortexing): 91.6% | SGPT, % of initial value (plasma proteins [1]; after vortexing): 92% | factor IX, % of initial value (plasma proteins [1]; after vortexing): 77.6% | factor V, % of initial value (plasma proteins [1]; after vortexing): 58% | factor VIII, % of initial value (plasma proteins [1]; after vortexing): 59% | fibrinogen, % of initial value (plasma proteins [1]; after vortexing): 80% | Level of calcium measured ([2]; Citrate Level 0.01%): 9.2 mg/dL | Level of calcium measured ([2]; Citrate Level 0.05%): 9.1 mg/dL | Level of calcium measured ([2]; Citrate Level 0.1%): 7.1 mg/dL | Level of calcium measured ([2]; Citrate Level 0.25%): 4.8 mg/dL | Level of calcium measured ([2]; Citrate Level 0.5%): 1.6 mg/dL | Level of calcium measured ([2]; Citrate Level 1%): 0.4 mg/dL | PT (4 hrs at RT) (clot formation; anticoagulant 0.65 wgt %): 14.1 s | PTT (4 hrs at RT) (clot formation; anticoagulant 0.65 wgt %): 33.8 s | PT (4 hrs at RT) (clot formation; anticoagulant 0.75 wgt %): 16.6 s | PTT (4 hrs at RT) (clot formation; anticoagulant 0.75 wgt %): 33.2 s | PT (4 hrs at RT) (clot formation; anticoagulant 0.90 wgt %): 36.5 s | PTT (4 hrs at RT) (clot formation; anticoagulant 0.90 wgt %): 44.4 s | Alk. Phos (plasma proteins [3]; [5]): 24 IU/.L | LDH (plasma proteins [3]; [5]): 96 IU/L | SGOT (plasma proteins [3]; [5]): 12 IU/L | SGPT (plasma proteins [3]; [5]): 24 IU/L | fIX (plasma proteins [3]; [5]): 84% | fV (plasma proteins [3]; [5]): 67% | fVIII (plasma proteins [3]; [5]): 62% | fibrinogen (plasma proteins [3]; [5]): 202 mg/dL | Alk. Phos (plasma proteins [3]; Pre glass beads): 25 IU/.L | LDH (plasma proteins [3]; Pre glass beads): 99 IU/L | SGOT (plasma proteins [3]; Pre glass beads): 12 IU/L | SGPT (plasma proteins [3]; Pre glass beads): 26 IU/L | fIX (plasma proteins [3]; Pre glass beads): 98% | fV (plasma proteins [3]; Pre glass beads): 95% | fVIII (plasma proteins [3]; Pre glass beads): 97% | fibrinogen (plasma proteins [3]; Pre glass beads): 247 mg/dL | Alk. Phos (plasma proteins [4]; [6]): 16 IU/.L | LDH (plasma proteins [4]; [6]): 91 IU/L | SGOT (plasma proteins [4]; [6]): 7 IU/L | SGPT (plasma proteins [4]; [6]): 17 IU/L | fIX (plasma proteins [4]; [6]): 79% | fV (plasma proteins [4]; [6]): 69% | fVIII (plasma proteins [4]; [6]): 88% | fibrinogen (plasma proteins [4]; [6]): 147 mg/dL | Alk. Phos (plasma proteins [4]; before heating, fresh plasma): 23 IU/.L | LDH (plasma proteins [4]; before heating, fresh plasma): 97 IU/L | SGOT (plasma proteins [4]; before heating, fresh plasma): 10 IU/L | SGPT (plasma proteins [4]; before heating, fresh plasma): 20 IU/L | fIX (plasma proteins [4]; before heating, fresh plasma): 99% | fV (plasma proteins [4]; before heating, fresh plasma): 97% | fVIII (plasma proteins [4]; before heating, fresh plasma): 102% | fibrinogen (plasma proteins [4]; before heating, fresh plasma): 198 mg/dL

O=C([O-])CC(O)(CC(=O)[O-])C(=O)[O-].[Na+].[Na+].[Na+] [Na Citrate, sodium citrate, reference compound]
Alk. Phos (plasma proteins [1]; Post 30 min vortexing): 15 IU/.L | LDH (plasma proteins [1]; Post 30 min vortexing): 33 IU/L | SGOT (plasma proteins [1]; Post 30 min vortexing): 1 IU/L | SGPT (plasma proteins [1]; Post 30 min vortexing): 1 IU/L | fIX (plasma proteins [1]; Post 30 min vortexing): 44% | fV (plasma proteins [1]; Post 30 min vortexing): 21% | fVIII (plasma proteins [1]; Post 30 min vortexing): 32% | fibrinogen (plasma proteins [1]; Post 30 min vortexing): 106 mg/dL | Alk. Phos (plasma proteins [1]; Pre vortexing): 27 IU/.L | LDH (plasma proteins [1]; Pre vortexing): 100 IU/L | SGOT (plasma proteins [1]; Pre vortexing): 15 IU/L | SGPT (plasma proteins [1]; Pre vortexing): 29 IU/L | fIX (plasma proteins [1]; Pre vortexing): 103% | fV (plasma proteins [1]; Pre vortexing): 98% | fVIII (plasma proteins [1]; Pre vortexing): 102% | fibrinogen (plasma proteins [1]; Pre vortexing): 258 mg/dL | LDH, % of the initial value (plasma proteins [1]; [7]): 48% | SGOT, % of the initial value (plasma proteins [1]; [7]): 33% | SGPT, % of the initial value (plasma proteins [1]; [7]): 32% | alkaline phosphatase, % of the initial value (plasma proteins [1]; [7]): 80% | factor IX, % of the initial value (plasma proteins [1]; [7]): 62% | factor V, % of the initial value (plasma proteins [1]; [7]): 52% | factor Viii, % of the initial value (plasma proteins [1]; [7]): 57% | fibrinogen, % of the initial value (plasma proteins [1]; [7]): 69% | Alkaline phosphatase, % of its initial value (plasma proteins [1]; after vortexing): 55% | LDH, % of initial value (plasma proteins [1]; after vortexing): 33% | SGOT, % of initial value (plasma proteins [1]; after vortexing): 6.6% | SGPT, % of initial value (plasma proteins [1]; after vortexing): 3.4% | factor IX, % of initial value (plasma proteins [1]; after vortexing): 43% | factor V, % of initial value (plasma proteins [1]; after vortexing): 21% | factor VIII, % of initial value (plasma proteins [1]; after vortexing): 31% | fibrinogen, % of initial value (plasma proteins [1]; after vortexing): 4% | Level of calcium measured ([2]; Citrate Level 0.01%): 9.2 mg/dL | Level of calcium measured ([2]; Citrate Level 0.05%): 8.7 mg/dL | Level of calcium measured ([2]; Citrate Level 0.1%): 5.3 mg/dL | Level of calcium measured ([2]; Citrate Level 0.25%): 2.5 mg/dL | Level of calcium measured ([2]; Citrate Level 0.5%): 0.6 mg/dL | Level of calcium measured ([2]; Citrate Level 1%): 0 mg/dL | PT (4 hrs at RT) (clot formation; anticoagulant 0.65 wgt %): 13.1 s | PTT (4 hrs at RT) (clot formation; anticoagulant 0.65 wgt %): 28.7 s | PT (4 hrs at RT) (clot formation; anticoagulant 0.75 wgt %): 14.1 s | PTT (4 hrs at RT) (clot formation; anticoagulant 0.75 wgt %): 31.5 s | PT (4 hrs at RT) (clot formation; anticoagulant 0.90 wgt %): 21.2 s | PTT (4 hrs at RT) (clot formation; anticoagulant 0.90 wgt %): 35.0 s | Alk. Phos (plasma proteins [3]; [5]): 16 IU/.L | LDH (plasma proteins [3]; [5]): 24 IU/L | SGOT (plasma proteins [3]; [5]): 1 IU/L | SGPT (plasma proteins [3]; [5]): 1 IU/L | fIX (plasma proteins [3]; [5]): 14% | fV (plasma proteins [3]; [5]): 15% | fVIII (plasma proteins [3]; [5]): 29% | fibrinogen (plasma proteins [3]; [5]): 88 mg/dL | Alk. Phos (plasma proteins [3]; Pre glass beads): 27 IU/.L | LDH (plasma proteins [3]; Pre glass beads): 100 IU/L | SGOT (plasma proteins [3]; Pre glass beads): 15 IU/L | SGPT (plasma proteins [3]; Pre glass beads): 29 IU/L | fIX (plasma proteins [3]; Pre glass beads): 103% | fV (plasma proteins [3]; Pre glass beads): 98% | fVIII (plasma proteins [3]; Pre glass beads): 102% | fibrinogen (plasma proteins [3]; Pre glass beads): 258 mg/dL | Alk. Phos (plasma proteins [4]; [6]): 23 IU/.L | LDH (plasma proteins [4]; [6]): 84 IU/L | SGOT (plasma proteins [4]; [6]): 15 IU/L | SGPT (plasma proteins [4]; [6]): 21 IU/L | fIX (plasma proteins [4]; [6]): 67% | fV (plasma proteins [4]; [6]): 45% | fVIII (plasma proteins [4]; [6]): 56% | fibrinogen (plasma proteins [4]; [6]): 15 mg/dL | Alk. Phos (plasma proteins [4]; before heating, fresh plasma): 30 IU/.L | LDH (plasma proteins [4]; before heating, fresh plasma): 110 IU/L | SGOT (plasma proteins [4]; before heating, fresh plasma): 18 IU/L | SGPT (plasma proteins [4]; before heating, fresh plasma): 32 IU/L | fIX (plasma proteins [4]; before heating, fresh plasma): 104% | fV (plasma proteins [4]; before heating, fresh plasma): 98% | fVIII (plasma proteins [4]; before heating, fresh plasma): 109% | fibrinogen (plasma proteins [4]; before heating, fresh plasma): 206 mg/dL
